Measured values from patent US10694752B2 (priority 2016, dated 2020).
Several values for one entry are separate records, joined by “and”; a condition that tells them apart may be missing. Equal entries are not always repeated.

Columns and labels:
[1] = test system: propiconazole resistant Chlorella sorokiniana mutant PcZ-2 (CCAP 211/134); test: Growth of propiconazole resistant mutant PcZ-2 in the presence of propiconazole (OD at 750 nm); assay type: cell-based; conditions: 10 μM propiconazole; for Average % increase PcZ-2 + 10 uM PcZ: average of triplicates, compared with wild type without propiconazole; for % increase PcZ-2 + 10 μM PcZ: growth of PcZ-2 compared with wild type without propiconazole, individual replicates, 28° C., listed as PcZ
Procedure: (§1) Chlorella sorokiniana cells (Wild type) and propiconazole resistant mutants of Chlorella species (PcZ-2) were inoculated at 0.1-0.15 OD@750 nm (each set in triplicates). To verify the effect of methanol (propiconazole was dissolved in methanol), one set was treated with 0.1% methanol. One set of flasks in triplicate of Wild type and PcZ-2 mutants were inoculated with and without 10 μM propiconazole. After inoculation flasks were kept in 12 h light/12 hour dark cycles of white light in an incubator shaker at 100 rpm. The temperature was 28° C., 70% humidity and 2% ambient CO2. 3 mL sample was removed each day, to determine the Optical density (OD) of the culture at 750 nm. The results obtained are as illustrated in FIG. 1.
(§2) FIG. 1 illustrates a graph of the growth comparison between wild type Chlorella sorokiniana and propiconazole resistant Chlorella sorokiniana mutant PcZ-2, in the presence of propiconazole, wherein A represents wild type Chlorella sorokiniana in the absence of propiconazole, B represents wild type Chlorella sorokiniana grown in the presence of 0.1% methanol, C represents wild type Chlorella sorokiniana grown in the presence of 10 μM propiconazole, D represents PcZ-2 grown in the absence of propiconazole, E represents PcZ-2 grown in the presence of 0.1% methanol, and F represents PcZ-2 grown in the presence of 10 μM propiconazole.

[2] = test system: wild type Chlorella sorokiniana; test: Growth of wild type Chlorella sorokiniana in the presence of propiconazole (OD at 750 nm); assay type: cell-based; conditions: 10 μM propiconazole; FIG. 1
Procedure: as §1, §2

**Q.** Which results are given for `CCCC1COC(Cn2cncn2)(c2ccc(Cl)cc2Cl)O1` (centres unmarked) [propiconazole, Propiconazole]?
**A.** growth of PcZ-2 in the presence of propiconazole ([1]; FIG. 1): capable of growing; Average % increase PcZ-2 + 10 uM PcZ ([1]; day 4): 62.66%; % increase PcZ-2 + 10 μM PcZ ([1]; day 4): 52.73% and 66.67% and 68.57%; Average % increase PcZ-2 + 10 uM PcZ ([1]; day 6): 20.01%; % increase PcZ-2 + 10 μM PcZ ([1]; day 6): 13.33% and 28.96% and 17.75%; Average % increase PcZ-2 + 10 uM PcZ ([1]; day 7): 21.07%; % increase PcZ-2 + 10 μM PcZ ([1]; day 7): 10.64% and 29.37% and 23.19%; growth of wild type Chlorella sorokiniana culture in the presence of propiconazole [2]: crashes after a few days
